Assay results: patent US20090226956A1, “RUNX-MEDIATED ACTION OF NUCLEAR RECEPTORS AND UTILITIES THEREOF” (University of Southern California, priority 2008, published 2009)

Tests used:
Runx2 [1] = test: 6XOSE2-Luc Runx2 reporter luciferase assay, COS7 cells transfected with Runx2 and AR; type: cell-based, human
Description: As COS7 cells were transiently transfected in 96 well format with the Runx2 reporter 6XOSE2-Luc (firefly luciferase) along with expression vectors encoding human Runx2, AR, and GR as indicated. […] B. Parallel sets of COS7 cell cultures were transfected with either the AR reporter MMTV-Luc or the Runx2 reporter 6XOSE-Luc, along with 1 ng each of AR and Runx2 expression plasmids. […] Bar graphs represent luciferase assays, in which the reporters OSE2-Luc (left panel) and MMTV-Luc (right panel), were transfected with expression plasmids encoding wild type AR (WT) or a mutant AR lacking the AF1 domain (ΔAF1) as indicated.
We examined the effect of AR on the transcriptional potential of Runx2 using transient transfection reporter assays COS7 cells, which express neither transcription factor, were transfected with plasmids encoding Runx2 and AR, along with the 6XOSE2-Luc reporter, in which luciferase is controlled by six copies of the OSE2 Runx2 binding site (53).
Since AR is a potent transcription factor, we investigated if its transactivation function was required for repressing Runx2. […] MMTV-Luc and 6XOSE2-Luc were used as reporters for monitoring the transactivation and Runx2 repression functions of AR, respectively, with equal amounts of each of AR and Runx2 expression plasmids co-transfected in both assays.
Unless otherwise stated, these hormones were applied at a final concentration of 10 nM in 0.001% ethanol as the vehicle.
(§6) Transient transfection, luciferase, co-IP and ChIP—These assays were performed essentially as previously described (34, 51).

[2] = system: endogenous Runx2 in PC3-AR cells; conditions: DHT 24 hrs; not in PC3-GFP cells
Description: B. PC3 cell that had been stably transduced with lentiviruses encoding AR or GFP were transiently transfected with the MMTV-Luc (left) or 6XOSE2-Luc (middle) reportersk, followed by luciferase assay, or, they were subjected to RT-qPCR analysis of the OC gene (right). […] Mean±SEM, n=4.
To study the influence of AR on Runx2 activity and on the Runx2 target gene OC in PCa cells, AR was first stably introduced into PC3 cells by retroviral infection. The transduced cells, designated PC3-AR, presumably resemble PCa cells that endogenously express both Runx2 and wild type AR. These cells were transiently transfected with the MMTV-Luc or the 6XOSE2-Luc reporter plasmid. PC3-GFP cells, transduced with a GFP-encoding retrovirus, were used as control.
Quantitative real time RT-PCR—Total RNA was isolated using Aurum Total RNA® kit (Bio-Rad, Hercules, Calif.) following the manufacturer's recommendations. One microgram of total RNA was reverse-transcribed using the Superscript III kit (Invitrogen) and the cDNA was subjected to real-time PCR amplification (RTqPCR) using iQ™ SYBR Green Supermix (Bio-Rad).

Runx2 in SaOS-2 cells = conditions: DHT 24 hrs
Description: Data are representative of at least three independent experiments.
as §6

[3] = system: Runx2 occupancy of the endogenous OSE2 site; conditions: Day-9 MC3T3-E1, DHT four hours, ChIP
Description: Occupancy was quantified by qPCR of an OC promoter fragment containing the OSE2 site or a fragment of the insulin promoter as control.
To test whether the DNA-binding exclusion model operates in vivo, we investigated whether AR interferes with binding of Runx2 to its chromatin-embedded OSE2 element at the OC promoter in MC3T3-E1 cells.
A slight modification was introduced for immunoprecipitation using MC3T3-E1 and PC3-AR cells. These cells were plated in a 150 mm dish in phenol-red free media supplemented with 5% CSS. The MC3T3-E1 cell culture medium was further supplemented, commencing at confluence, with 50 μg/ml ascorbic acid and 150 mM β-glycerophosphate.

Runx1 = conditions: COS7, 6XOSE2-luc (FIG. 25)
Description: The ability of sex steroids and their receptors to repress Runx1 was determined by transient transfection assays of COS7 cells as described earlier for Runx2.
We tested the effects of ERαX, ERβ, AR and GR on Runx1 activity using the same assay employed for Runx2.

[4] = system: endogenous Runx proteins in PC3 cells; conditions: 6XOSE2-luciferase, 10 nM DHT
Description: Interaction between AR and Runx proteins in PC3 cells that express endogenous Runx proteins. A. EMSA assessing Runx protein activity using an OSE2 ^32P-labeled probe. Whole cell extracts from PC3 cells were shifted and supershifted with Runx1 and Runx2 antibodies respectively and successfully competed with WT 10× and 100×OSE2 unlabeled probe. […] Confocal of endogenous Runx (fluorescein) proteins and AR (rhodamine) under transfected or untransfected AR conditions.

Runx2 [5] = test: 6XOSE2-luc Runx2 reporter luciferase assay, COS7 cells transfected with Runx2 and ERα; type: cell-based, human
Description: (§1) FIG. 1. ERα inhibits Runx2. (A,B) COS7 cells were transiently transfected with the Runx reporter 6XOSE2-luc (firefly) along with expression vectors encoding human Runx2 (A), Runx1 (B), ERα, and/or ERβ as indicated. […] In each experiment, the firefly luciferase results were corrected for the expression of a co-transfected CMV-renilla luciferase construct (internal control), except for Panel A, where the renilla luciferase values are shown in the inset graph. […] All data are presented as mean values±SEM, with n=4 dish replicates of a representative experiment, repeated at least 3 times.
(§2) FIG. 6. Various effects of SERM-bound ERα on Runx2. […] (B, C) COS7 cells were transfected with Runx2 and its 6XOSE2-luc reporter (B), or with ERE-luc (C) along with expression vectors coding for the indicated ER isoforms or fragments. […] All data are presented as mean values±SEM, with n=4 dish replicates of a representative experiment, repeated at least 3 times.
(§3) Cells were seeded at a density of 10,000 per well in 96-well plates and grown in 5% charcoal-stripped serum (CSS)-containing phenol red-free medium for 24 h. The indicated plasmids (50 ng reporter, 52 ng total) were transfected using ‘LTX and Plus reagent’ according to manufacture's specification (Invitrogen, Carlsbad, Calif.). Equimolar amounts of the empty vectors pcDNA 3.1 and pSG5 were used as controls, and the pCAT-basic promoter-less plasmid was used as ‘filler’ DNA. Under these conditions the total amounts of promoter equivalents (molar) and DNA mass (ng) were the same in all wells of a particular experiment. As an internal control, 0.01 ng of tk-Renilla-luc or CMV-renilla-luc (Promega, Madison, Wis.) was used for correction of transfection efficiency. Cells were subsequently treated with vehicle (EtOH, 0.01%) or the indicated ligands for 24 h. Luciferase activity was determined using the dual-assay luciferase kit (Promega, Madison, Wis.).
COS7 cells were transiently transfected with the indicated expression vectors along with a reporter for either Runx2 (6XOSE2-luciferase) or the classical transcriptional activation activity of ER (ERE-luciferase).

Runx2 [6] = test: 6XOSE2-luc Runx2 reporter luciferase assay, COS7 cells transfected with Runx2 and ERβ; type: cell-based, human; conditions: COS7, 6XOSE2-luc, 10 nM, 24 h
Description: as §1
as §3, with “As an internal control, 0.01 ng of tk-Renilla-luc or CMV-renilla-luc (Promega, Madison, Wis.) was used for correction of transfection efficiency. Cells were subsequently treated with vehicle (EtOH, 0.01%) or the indicated ligands for 24 h.” left out

ERα = biological target: T1, ERα (Homo sapiens, UniProt P03372); test: ERE-luc ER reporter luciferase assay in COS7 cells; type: cell-based; conditions: 100 nM (FIG. 6C)
T1 sequence (P03372 1-595): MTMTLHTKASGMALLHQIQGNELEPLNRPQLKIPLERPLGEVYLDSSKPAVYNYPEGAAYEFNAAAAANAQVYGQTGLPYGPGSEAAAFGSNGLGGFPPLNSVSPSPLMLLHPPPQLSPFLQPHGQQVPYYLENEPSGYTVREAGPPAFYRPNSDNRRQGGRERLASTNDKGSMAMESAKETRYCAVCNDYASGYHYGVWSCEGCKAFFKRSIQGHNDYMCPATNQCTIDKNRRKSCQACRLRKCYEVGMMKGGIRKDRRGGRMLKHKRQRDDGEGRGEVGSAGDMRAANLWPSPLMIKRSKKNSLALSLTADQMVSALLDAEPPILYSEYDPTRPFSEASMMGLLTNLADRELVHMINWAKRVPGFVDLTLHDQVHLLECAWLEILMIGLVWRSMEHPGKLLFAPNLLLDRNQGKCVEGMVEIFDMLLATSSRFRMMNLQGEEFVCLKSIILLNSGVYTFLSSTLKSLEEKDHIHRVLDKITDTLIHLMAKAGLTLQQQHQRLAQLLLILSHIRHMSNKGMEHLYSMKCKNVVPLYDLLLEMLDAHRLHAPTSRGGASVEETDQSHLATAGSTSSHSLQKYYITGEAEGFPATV

[7] = system: Runx2 in MDA-MB-231 cells; test: 6XOSE2-luc Runx2 reporter assay in MDA-MB-231 breast cancer cells expressing ERα; type: cell-based, human; conditions: ERα expressed; E2 10 nM, OHT 100 nM, ICI 182780 100 nM
Description: as §2
(§4) COS7 cells were maintained in Dulbeco Modified Eagle Medium (DMEM) and 5% fetal bovine serum (FBS). The mouse osteoblastic cell line MC3T3-E1 was maintained in α-MEM and 10% FBS. Runx-reporter osteoblasts were generated by stable transfection of MC3T3-E1 cells with the 6XOSE2-luc reporter construct using the calcium phosphate coprecipitation method and hygromycin ([…]) as the selection drug. Resistance to hygromycin was conferred by cotransfection of the pCEP plasmid (1:15 molar ratio). To support development of the osteoblast phenotype, cells were treated with 50 μg/ml ascorbic acid and […] β-glycerophosphate commencing at confluence. The human breast cancer cell lines MDA-MB-231, T47D, and MCF7 were maintained in DMEM and 5% FBS.
(§5) Cells were seeded at a density of 10,000 per well in 96-well plates and grown in 5% charcoal-stripped serum (CSS)-containing phenol red-free medium for 24 h. […] Luciferase activity was determined using the dual-assay luciferase kit (Promega, Madison, Wis.).

Runx2 in T47D cells = test: 6XOSE2-luc Runx2 reporter assay in T47D breast cancer cells; type: cell-based, human; conditions: 100 nM
Description: as §2, §4, §5

Runx2 in MCF7 cells = test: 6XOSE2-luc Runx2 reporter assay in MCF7 breast cancer cells; type: cell-based, human; conditions: 100 nM
Description: as §2, §4, §5

ERα/Runx2 complexes = ERα/Runx2 complexes (Homo sapiens, UniProt P03372); conditions: COS7; E2 10 nM, OHT 100 nM, ICI 182780 100 nM; 24 h
Chain of ERα/Runx2 complexes (Q13950 1-507 isoform Q13950-2 partner, one chain of several): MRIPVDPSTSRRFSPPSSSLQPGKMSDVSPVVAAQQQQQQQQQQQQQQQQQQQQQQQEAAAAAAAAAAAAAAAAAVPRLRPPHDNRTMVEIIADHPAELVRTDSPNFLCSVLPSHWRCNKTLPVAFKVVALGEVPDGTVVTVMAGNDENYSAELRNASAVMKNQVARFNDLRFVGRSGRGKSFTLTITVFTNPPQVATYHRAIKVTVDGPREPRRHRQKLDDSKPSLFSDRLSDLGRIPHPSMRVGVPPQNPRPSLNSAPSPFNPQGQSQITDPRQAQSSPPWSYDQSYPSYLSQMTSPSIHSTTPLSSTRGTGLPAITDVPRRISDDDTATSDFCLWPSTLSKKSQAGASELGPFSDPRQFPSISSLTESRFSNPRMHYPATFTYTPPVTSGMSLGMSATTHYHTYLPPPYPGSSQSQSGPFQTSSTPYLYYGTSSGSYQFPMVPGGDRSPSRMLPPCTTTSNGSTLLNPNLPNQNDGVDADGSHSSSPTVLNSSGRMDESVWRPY
Description: Cells were seeded at a density of 300,000 per well in six-well plates and grown in 5% CSS-containing phenol red-free medium for 24 h. Cells were transfected when indicated, and 24 h later they were lysed in a 50 mM Tris-HCl buffer (pH 7.4) containing 150 mM NaCl, 1 mM EDTA, 1% Triton X-100, and fresh Protease Inhibitors Cocktail (1%; Sigma, St. Louis, Mo.). […] The remaining lysate was immunoprecipitated with approximately 3 μg of the specified antibody and 30 μl Protein-G beads (Amersham Biosciences Freiburg, Germany) and washed three times for 5 min each with the same buffer, followed by centrifugation at 4,000 rpm for 1 min. […] Input and immunoprecipitates were analyzed by Western blot analysis.

Runx2 [8] = conditions: same cells as Raloxifene; cited from earlier work
AR DBD = AR DBD (Homo sapiens, UniProt P10275 P10275:540-647); test: EMSA; GST-AR-DBD alone forms no complex with OSE2; conditions: tags: GST fusion, E. coli BL21(DE3); label: 32P
Chain of AR DBD (P10275 540-647, one chain of several): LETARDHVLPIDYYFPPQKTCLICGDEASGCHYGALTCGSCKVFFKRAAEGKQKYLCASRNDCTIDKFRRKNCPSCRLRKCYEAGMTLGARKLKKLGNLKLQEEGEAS
Description: Where indicated, the binding reaction also contained purified GST, GST-AR-DBD, GST-AR-DBD^A573D (see FIG. 14G), or anti-Runx2 specific antibodies, either native (n) or denaturated by boiling (b). […] Arrow indicates Runx2/OSE2 complex.
The source for Runx2 was MC3T3-E1 cell extract and recombinant GST-AR-DBD was purified from E. coli.

[9] = COS7, 6XOSE2-Luc, 10 nM, 24 hrs

Description for MC3T3-E1 cells: Staining with 4′,6-diamidino-2-phenylindole (DAPI) demarcates the cell nucleus.
A sub-line that had been stably transfected with the 6XOSE2-Luc reporter (51) was employed to simultaneously test the influence of AR on pure Runx2 activity (luciferase) and on OC gene expression.
Confocal immunofluorescence microscopy—Cells were grown on 18 mm^2 cover-slips in 6-well plates for 24 hrs in growth medium with CSS. […] Cells were mounted using Vectashield Hard Set mounting medium with DAPI (Burlingame, Calif.) and viewed using an LSM 510 Zeiss confocal microscope at 60× magnification. Images were processed using the software program Image J.

C[C@]12CCC(=O)C[C@@H]1CC[C@@H]1[C@@H]2CC[C@]2(C)[C@@H](O)CC[C@@H]12 [DHT, dihydrotestosterone]
Effect on Runx2 activity in the absence of AR (Runx2 [1]; [9]): did not affect
Effect on Runx2 activity in the presence of AR (Runx2 [1]; [9]): repressed Runx2 activity to basal levels
Effect on Runx2 activity in the presence of GR (Runx2 [1]; COS7, 6XOSE2-Luc, DHT 10 nM): did not alter
6XOSE2-Luc reporter activity in PC3-AR cells [2]: strong repression
OC expression (RT-qPCR) in PC3-AR cells [2]: strongly inhibited
6XOSE2-Luc luciferase activity in SaOS-2 cells (Runx2 in SaOS-2 cells): inhibited luciferase activity
Expression of both 6XOSE2-Luc and OC on day 9 (MC3T3-E1 cells; MC3T3-E1, DHT chronically since confluence or 24 hrs prior to harvest): strongly inhibited
AR protein levels in early and late MC3T3-E1 cultures (MC3T3-E1 cells; immunofluorescence, day 1 and day 9, DHT 24 hrs): strongly induced
Decrease of Runx2 occupancy of the endogenous OSE2 site [3]: 2.4 fold
Effect of AR+DHT on Runx1 activity (Runx1): robustly inhibited
Endogenous Runx-mediated activity in PC3 cells with transfected AR [4]: also inhibited

C[C@]12CC[C@@H]3c4ccc(O)cc4CC[C@H]3[C@@H]1CC[C@@H]2O [E2, estradiol]
Inhibition of Runx2 activity (Runx2 [5]; COS7, 6XOSE2-luc, in the presence of ERα, E2 10 nM, 24 h (FIG. 1A)): 76%
Effect on Runx2 activity in the presence of ERβ (Runx2 [6]): did not inhibit

C[C@]12CC[C@@H]3c4ccc(O)cc4C[C@@H](CCCCCCCCC[S+]([O-])CCCC(F)(F)C(F)(F)F)[C@H]3[C@@H]1CC[C@@H]2O (stereo partly shown) [ICI 182780]
Stimulation of Runx2 activity (Runx2 [5]; COS7, 6XOSE2-luc, ERα, ICI 182780 100 nM, 24 h (FIG. 6B)): 3.1 fold
Partial agonist effect on an ERE-containing template (ERα): weak
Effect on 6XOSE2 Runx2 reporter in MDA-MB-231 cells [7]: slight if any inhibitory effect
Effect on Runx2 in T47D cells (Runx2 in T47D cells): slightly stimulated
Effect on Runx2 in MCF7 cells (Runx2 in MCF7 cells): slightly stimulated
ERα/Runx2 interaction in co-IP (formation of ERα/Runx2 complexes) (ERα/Runx2 complexes): strongly induced

CC(=O)O[C@]1(C(C)=O)CC[C@H]2[C@@H]3C[C@H](C)C4=CC(=O)CC[C@]4(C)[C@H]3CC[C@@]21C [MPA]
Effect of MPA-stimulated AR on Runx activities (Runx2 [1]; COS7, 6XOSE2-luciferase, Runx2 and Runx1 (FIG. 21)): inhibited Runx activities

CC/C(=C(\c1ccc(O)cc1)c1ccc(OCCN(C)C)cc1)c1ccccc1 [OHT, hydroxytamoxifen]
Effect on Runx2 when bound to the ERαDBD-LBD (Runx2 [5]; COS7, 6XOSE2-luc, ERαDBD-LBD fragment, 100 nM): stimulatory effect
Effect on Runx2 activity (Runx2 [5]; COS7, 6XOSE2-luc, full-length ERα, 100 nM, 24 h): slightly inhibited
Effect on 6XOSE2 Runx2 reporter in MDA-MB-231 cells [7]: as strongly as E2
Effect on Runx2 in T47D cells (Runx2 in T47D cells): uniformly inhibitory
Effect on Runx2 in MCF7 cells (Runx2 in MCF7 cells): uniformly inhibitory

O=C(c1ccc(OCCN2CCCCC2)cc1)c1c(-c2ccc(O)cc2)sc2cc(O)ccc12 [Raloxifene]
Effect on Runx2 activity in COS7 cells (Example V) (Runx2 [5]; 6XOSE2-luciferase, 100 nM Raloxifene, 24 hrs): small effect is stimulatory

CC/C(=C(\c1ccccc1)c1ccc(OCCN(C)C)cc1)c1ccccc1 [Tamoxifene]
Effect on Runx2 activity in COS7 cells (Khalid et al., 2008, FIG. 6B) (Runx2 [8]): small inhibitory effect

B1: OSE2 probe (dsDNA)
DNA 1: AGCTGCAATCACCAACCACAGCA
DNA 2: TGCTGTGGTTGGTGATTGCAGCT
binding result (AR DBD): no binding
